From ChEMBL document CHEMBL3351924, “Detailed analysis and follow-up studies of a high-throughput screening for indoleamine 2,3-dioxygenase 1 (IDO1) inhibitors” (Eur J Med Chem, 2014)
In brackets after ≈: the same amount, converted by molar mass. Values belong to the molecule of their own block, whether it stands above or below them.

Legend:
[1] = target: T1, Indoleamine 2,3-dioxygenase 1 (Homo sapiens, UniProt P14902); assay: Inhibition of IDO1 (unknown origin) using L-tryptophan substrate incubated for 60 mins by HPLC
[2] = Solubility of the compound in pH 6.5 phosphate buffer containing 5% DMSO
[3] = target: T1, Indoleamine 2,3-dioxygenase 1; assay: Inhibition of IDO1 (unknown origin) using L-tryptophan substrate incubated for 60 mins in presence of 0.01% Triton-X by HPLC
[4] = target: Tryptophan 2,3-dioxygenase (Mus musculus, UniProt P48776); assay: Inhibition of mouse TDO expressed in mouse P815B cells using L-tryptophan substrate incubated for 24 hrs by HPLC based cellular assay; format: cell-based
[5] = target: Indoleamine 2,3-dioxygenase 1 (Mus musculus, UniProt P28776); assay: Inhibition of mouse IDO1 expressed in mouse P815B cells using L-tryptophan substrate incubated for 18 hrs by HPLC based cellular assay; format: cell-based
[6] = Cytotoxicity against mouse P815B cells after 24 hrs by MTS/PMS assay
[7] = target: T1, Indoleamine 2,3-dioxygenase 1; assay: Inhibition of IDO1 (unknown origin) using L-tryptophan substrate incubated for 60 mins in presence of 5 mM GSH by HPLC
[8] = phosphate buffer containing 5% DMSO

T1 sequence (P14902 whole entry): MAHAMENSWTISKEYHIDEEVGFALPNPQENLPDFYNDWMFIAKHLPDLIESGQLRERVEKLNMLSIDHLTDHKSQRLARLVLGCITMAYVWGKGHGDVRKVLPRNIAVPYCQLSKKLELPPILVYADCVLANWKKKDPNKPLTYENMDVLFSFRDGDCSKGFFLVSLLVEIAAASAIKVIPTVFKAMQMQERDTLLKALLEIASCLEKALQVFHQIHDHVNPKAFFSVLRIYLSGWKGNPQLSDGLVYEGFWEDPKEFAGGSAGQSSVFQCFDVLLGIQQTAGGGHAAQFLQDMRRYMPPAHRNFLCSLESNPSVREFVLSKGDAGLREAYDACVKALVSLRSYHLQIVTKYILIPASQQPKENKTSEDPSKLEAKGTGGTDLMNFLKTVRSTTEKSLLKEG
Tryptophan 2,3-dioxygenase, sequence (P48776 whole entry): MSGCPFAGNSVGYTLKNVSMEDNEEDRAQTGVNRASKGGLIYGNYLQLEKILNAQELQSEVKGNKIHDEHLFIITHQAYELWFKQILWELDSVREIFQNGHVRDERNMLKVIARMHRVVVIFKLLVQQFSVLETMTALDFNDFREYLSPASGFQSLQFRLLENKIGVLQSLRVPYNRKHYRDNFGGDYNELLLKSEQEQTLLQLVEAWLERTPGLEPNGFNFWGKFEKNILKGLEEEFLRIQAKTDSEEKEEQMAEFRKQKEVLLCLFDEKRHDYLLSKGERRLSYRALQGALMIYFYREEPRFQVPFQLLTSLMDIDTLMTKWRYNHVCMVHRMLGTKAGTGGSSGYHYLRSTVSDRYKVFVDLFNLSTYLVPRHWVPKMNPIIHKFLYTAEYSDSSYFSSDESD
Indoleamine 2,3-dioxygenase 1 (Mus musculus, UniProt P28776), sequence (P28776 whole entry): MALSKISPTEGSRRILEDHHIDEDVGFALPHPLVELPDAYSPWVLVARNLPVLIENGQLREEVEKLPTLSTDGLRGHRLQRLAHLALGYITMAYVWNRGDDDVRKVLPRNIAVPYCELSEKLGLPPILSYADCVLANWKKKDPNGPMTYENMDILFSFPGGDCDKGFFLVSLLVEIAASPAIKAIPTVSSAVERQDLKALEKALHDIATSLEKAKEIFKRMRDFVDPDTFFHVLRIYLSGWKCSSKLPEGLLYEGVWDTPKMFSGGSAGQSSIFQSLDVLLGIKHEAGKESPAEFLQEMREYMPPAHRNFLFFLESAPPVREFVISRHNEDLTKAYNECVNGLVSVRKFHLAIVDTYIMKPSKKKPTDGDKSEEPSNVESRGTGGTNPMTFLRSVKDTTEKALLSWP

SMILES: CC1=C(C#N)C(c2ccc(-c3ccc(Cl)cc3[N+](=O)[O-])o2)C(C#N)=C(C)N1
IC50 [1]: Not Active
solubility [2, 8]: 50 µM (≈ 19 µg/mL)

SMILES: COC(=O)C1=C(C)NC(C)=C(C(=O)OC)C1c1ccccc1[N+](=O)[O-] [NIFEDIPINE]
IC50 [1]: Not Active

SMILES: c1ccc(Cn2ccnc2)cc1 [BENZYLIMIDAZOLE]
IC50 [3]: Not Active
solubility [2, 8]: > 1000 µM

SMILES: Clc1ccc(CSC(Cn2ccnc2)c2ccc(Cl)cc2Cl)cc1 (configuration not stated) [SULCONAZOLE]
IC50 ([4]; p815b): Not Active
IC50 ([5]; p815b): Not Active
CC50 at 24 h ([6]; p815b): 10 µM
solubility [2, 8]: 10 µM (≈ 3.98 µg/mL)

SMILES: c1ccc(-c2ccc(C(c3ccccc3)n3ccnc3)cc2)cc1 (configuration not stated) [BIFONAZOLE]
IC50 ([4]; p815b): Not Active
IC50 ([1]; read-out: IC50): 23 µM
IC50 ([5]; p815b): Not Active
CC50 at 24 h ([6]; P815B cells): 10 µM
solubility [2, 8]: 25 µM (≈ 7.76 µg/mL)

SMILES: COCCCNC(=O)N/N=C/c1ccco1
solubility [2, 8]: 1000 µM (≈ 225 µg/mL)

SMILES: NC(=O)N/N=C/c1ccc(-c2ccc(C(F)(F)F)cc2[N+](=O)[O-])o1
IC50 [1]: Not Active
solubility [2, 8]: 50 µM (≈ 17.1 µg/mL)

SMILES: Clc1ccc(CCn2ccnc2)c(Cl)c1
IC50 ([3]; read-out: IC50): 820 µM
solubility [2, 8]: > 1000 µM

SMILES: OC(Cn1ccnc1)c1ccc(Cl)cc1Cl (configuration not stated)
IC50 ([3]; read-out: IC50): 130 µM
solubility [2, 8]: > 1000 µM

SMILES: NNC(=O)c1nn(-c2ccccc2)c(=O)c2c(N)scc12
IC50 ([4]; p815b): Not Active
IC50 ([1]; read-out: IC50): 13 µM
IC50 ([5]; p815b): Not Active
IC50 ([3]; read-out: IC50): 15 µM
CC50 at 24 h ([6]; P815B cells): > 25 µM
solubility [2, 8]: 1000 µM (≈ 301 µg/mL)

SMILES: Clc1ccc(CO/N=C(\Cn2ccnc2)c2ccc(Cl)cc2Cl)c(Cl)c1 [OXICONAZOLE]
IC50 ([4]; p815b): Not Active
IC50 ([1]; read-out: IC50): 28 µM
IC50 ([5]; p815b): Not Active
CC50 at 24 h ([6]; p815b): 10 µM
solubility [2, 8]: 20 µM (≈ 8.58 µg/mL)

SMILES: Oc1c(Cl)cc(Cl)cc1/C=N/c1ccc2[nH]cnc2c1
solubility [2, 8]: 10 µM (≈ 3.06 µg/mL)

SMILES: COC(=O)/C(C#N)=C(\C#N)c1ccc(Br)o1
IC50 ([4]; p815b): Not Active
IC50 ([1]; read-out: IC50): 0.71 µM
IC50 ([5]; p815b): Not Active
IC50 [7]: 7.1 µM
CC50 at 24 h ([6]; P815B cells): 5 µM
solubility [2, 8]: 100 µM (≈ 28.1 µg/mL)

SMILES: COC(=O)/C(C#N)=C1/C(=O)Nc2ccccc21
IC50 ([4]; p815b): Not Active
IC50 ([1]; read-out: IC50): 1.8 µM
IC50 ([5]; p815b): Not Active
IC50 [7]: 130 µM
CC50 at 24 h ([6]; P815B cells): > 25 µM
solubility [2, 8]: 100 µM (≈ 22.8 µg/mL)

SMILES: Cc1ccc(-n2nnnc2C/C=N/Nc2ccc(Cl)cc2)cc1
IC50 ([4]; read-out: IC50): 4.2 µM
IC50 ([1]; read-out: IC50): 54 µM
IC50 ([5]; read-out: IC50): 0.34 µM
IC50 [7]: 31 µM
IC50 ([3]; read-out: IC50): 53 µM
CC50 at 24 h ([6]; P815B cells): 10 µM
solubility [2, 8]: 12.5 µM (≈ 4.08 µg/mL)

SMILES: CCN(CC)c1ccc(NC(=O)C2CCCCC2)c(N(CC)CC)n1
solubility [2, 8]: 25 µM (≈ 8.66 µg/mL)

SMILES: N#C/C(=C\c1c[nH]cn1)S(=O)(=O)c1ccc(Cl)cc1
solubility [2, 8]: 1000 µM (≈ 294 µg/mL)

The next lines start with the values.

IC50 [3]: Not Active
solubility [2, 8]: > 1000 µM
SMILES: OC(Cn1cncn1)c1ccc(Cl)cc1Cl (configuration not stated)

solubility [2, 8]: 50 µM (≈ 23.7 µg/mL)
SMILES: O=C(c1ccc(OCCN2CCCCC2)cc1)c1c(-c2ccc(O)cc2)sc2cc(O)ccc12 [RALOXIFENE]

IC50 [3]: Not Active
solubility [2, 8]: > 1000 µM
SMILES: Clc1ccc(COCCn2ccnc2)c(Cl)c1

solubility [2, 8]: 100 µM (≈ 21.1 µg/mL)
SMILES: CSC1=NNC(c2ccccn2)S1 (configuration not stated)

IC50 [1]: Not Active
solubility [2, 8]: 100 µM (≈ 29.7 µg/mL)
SMILES: CCN(CC)C(=S)SSC(=S)N(CC)CC

IC50 [3]: Not Active
solubility [2, 8]: > 1000 µM
SMILES: OC(Cn1ccnc1)c1ccccc1 (configuration not stated)

solubility [2, 8]: 250 µM (≈ 68.8 µg/mL)
SMILES: COc1ccccc1NC(=S)N/N=C/c1ccco1

IC50 ([3]; read-out: IC50): 310 µM
solubility [2, 8]: > 1000 µM
SMILES: Clc1ccc(Cn2ccnc2)c(Cl)c1

solubility [2, 8]: 1 µM (≈ 0.456 µg/mL)
SMILES: CCOC(=O)C1=C(C)NC(C)=C(C(=O)OCC)C1c1ccccc1/C=C/C(=O)OC(C)(C)C [LACIDIPINE]

IC50 [3]: Not Active
solubility [2, 8]: > 1000 µM
SMILES: Oc1ccccc1C(O)Cn1ccnc1 (configuration not stated)

solubility [2, 8]: 1000 µM (≈ 180 µg/mL)
SMILES: Cc1cc(C)n2[nH]c(=S)nc2n1

solubility [2, 8]: 1000 µM (≈ 226 µg/mL)
SMILES: O=C(CC(=O)c1cccnc1)c1cccnc1

IC50 ([3]; read-out: IC50): 200 µM
solubility [2, 8]: > 1000 µM
SMILES: OC(Cn1ccnc1)c1ccccc1Cl (configuration not stated)

IC50 [3]: Not Active
solubility [2, 8]: > 1000 µM
SMILES: O=C(Cn1ccnc1)c1ccc(Cl)cc1Cl

solubility [2, 8]: 100 µM (≈ 31.1 µg/mL)
SMILES: Clc1ccc(Sc2nc(-c3cccs3)ns2)cc1

IC50 [3]: Not Active
solubility [2, 8]: > 1000 µM
SMILES: c1ccc(CCn2ccnc2)cc1

solubility [2, 8]: 12.5 µM (≈ 4.11 µg/mL)
SMILES: COc1cccc(N(C)C(=S)Oc2ccc3c(c2)CCCC3)n1 [LIRANAFTATE]

solubility [2, 8]: 100 µM (≈ 30.3 µg/mL)
SMILES: COc1ccc(-c2n[nH]cc2/C=C(/C#N)S(C)(=O)=O)cc1

IC50 [1]: Not Active
solubility ([2]; buffer): 1000 µM (≈ 207 µg/mL)
SMILES: Cc1cc(C2CCCCC2)n(O)c(=O)c1 [CICLOPIROX]

IC50 [1]: Not Active
solubility [2, 8]: 100 µM (≈ 21.2 µg/mL)
SMILES: S=c1[nH]cc(-c2ccc(Cl)cc2)o1

IC50 [1]: Not Active
solubility [2, 8]: 1000 µM (≈ 205 µg/mL)
SMILES: NC(=S)N/N=C1\CCc2ccccc21
